Data from paper PMC5870139 (Journal of the American Chemical Society, 2018).

Target: T1, TagT (Bacillus subtilis, UniProt Q7WY78)
T1 sequence (Q7WY78 1-322): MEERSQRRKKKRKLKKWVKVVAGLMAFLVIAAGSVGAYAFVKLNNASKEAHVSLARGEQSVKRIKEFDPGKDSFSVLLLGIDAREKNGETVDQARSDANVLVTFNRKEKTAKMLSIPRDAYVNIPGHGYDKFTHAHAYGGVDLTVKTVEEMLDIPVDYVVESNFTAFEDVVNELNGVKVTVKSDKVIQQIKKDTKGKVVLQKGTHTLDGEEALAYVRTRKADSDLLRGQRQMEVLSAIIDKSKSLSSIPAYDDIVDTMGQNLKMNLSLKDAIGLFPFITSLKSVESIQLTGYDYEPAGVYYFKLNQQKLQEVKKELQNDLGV
Assay: transfer of radiolabelled WTA precursor, PAGE autoradiography
Assay type: biochemical
Conditions: acceptor; co-substrate LIIA^WTA

| Compound | transfer of radiolabelled WTA precursor, PAGE autoradiography |
| --- | --- |
| CC(=O)N[C@H]1[C@H](O[C@H]2[C@H](O)[C@@H](NC(C)=O)[C@H](O[C@H]3[C@H](O)[C@@H](NC(C)=O)C(O)O[C@@H]3CO)O[C@@H]2CO)O[C@H](CO)[C@@H](O[C@@H]2O[C@H](CO)[C@@H](O[C@@H]3O[C@H](CO)[C@@H](O)[C@H](O)[C@H]3NC(C)=O)[C@H](O)[C@H]2NC(C)=O)[C@@H]1O (some centres unmarked) [n=3, chitin oligosaccharide containing five GlcNAcs] | LcpB and TagT transferred WTA onto chitin oligosaccharides containing five or more sugars |
| CC(=O)N[C@H]1[C@H](O[C@H]2[C@H](O)[C@@H](NC(C)=O)C(O[C@H]3[C@H](O)[C@@H](NC(C)=O)C(O[C@H]4[C@H](O)[C@@H](NC(C)=O)C(O[C@H]5[C@H](O)[C@@H](NC(C)=O)C(O[C@H]6[C@H](O)[C@@H](NC(C)=O)C(O)O[C@@H]6CO)O[C@@H]5CO)O[C@@H]4CO)O[C@@H]3CO)O[C@@H]2CO)O[C@H](CO)[C@@H](O)[C@@H]1O (some centres unmarked) [n=4, chitin oligosaccharide containing six GlcNAcs] | LcpB and TagT transferred WTA onto chitin oligosaccharides containing five or more sugars |
